The record followed here is patent publication US12203088B2, “Root-secreted peptide PEP1 in rice and gene encoding the same and use thereof” (ZHEJIANG UNIVERSITY, priority 2021, dated 2025).

Experiment [1] deals with OsPEP1 overexpressing transgenic plants. The experiment can be described thus: Exogenous PEP1 on root tips of OsPEP1 overexpressing transgenic plants. In kind it is in vivo, rice Xiushui 134. The conditions noted are these: transgenic plant OE2, 10^−6 M PEP1 for 2 days. An excerpt:
(§1) E is the statistics of the apical meristem length indicated in D. Data are means±SD (n≥15 independent seedlings, three biological replicates). Different letters indicate significant differences (P<0.01, ANOVA, LSD test);
F is the statistics of the cell length in the elongation zone indicated in D. Data are means±SD (n≥15 independent seedlings, three biological replicates). Different letters indicate significant differences (P<0.01, ANOVA, LSD test).
In the obtained T2 OsPEP1 overexpressing transgenic rice plants, three representative plants (OE1, OE2, OE3) were chosen for phenotypic analysis. […] The relative expression levels of endogenous OsPEP1 in Xiushui 134 and OsPEP1 overexpressing transgenic plants (OE1, OE2, OE3) were analyzed by quantitative real-time PCR (primers: […] (SEQ ID NO: 9); […] (SEQ ID NO: 10)).

For experiment [2], the system named is OsPEP1 RNAi transgenic plants. The experiment can be described thus: Exogenous PEP1 on root tips of OsPEP1 RNAi transgenic plants. The conditions noted are these: transgenic plant Ri2, 10^−6 M PEP1 for 2 days. In kind it is in vivo, rice Xiushui 134.
Description: D is the longitudinal phenotype of the root tip elongation zone (top) and meristem (bottom) of the wild-type WT and the transgenic plant Ri2 […] treated with 10^−6 M PEP1 for 2 days. Bar=100 μm;
as §1
F is the statistics of cell length in the elongation zone indicated in D. Data are means±SD (n≥15 independent seedlings, three biological replicates). Different letters indicate significant differences (P<0.01, ANOVA, LSD test).
In the obtained T2 OsPEP1 RNAi transgenic plants, three representative plants (Ri1, Ri2, Ri3) were selected for phenotypic analysis. […] The relative expression levels of endogenous OsPEP1 in Xiushui 134 and those OsPEP1 RNAi transgenic plants (Ri1, Ri2, Ri3) were analyzed by quantitative real-time PCR (primers: […] (SEQ ID NO: 9); […] (SEQ ID NO: 10)). […] Additionally, exogenous application of PEP1 could restore the root tip defected phenotype of OsPEP1 RNAi transgenic plants to the Xiushui 134 level (D-F in FIG. 5).

The test system of a further experiment is rice root tips. Put plainly: Root tip longitudinal sections of wild-type rice after PEP1 treatment. The class given is in vivo, Oryza sativa L. ssp. Japonica cv. Xiushui134. The conditions noted are these: wild-type plants. More on the design: length of cells in the elongation zone of rice root tips: dose or concentration left out as unconfirmed.
Another experiment has as its system rice seedlings. Put plainly: Treatment of rice seedlings with synthetic PEP1, primary root length. In kind it is in vivo, Oryza sativa L. ssp. Japonica cv. Xiushui134. The conditions noted are these: wild-type seedlings, different concentrations of synthetic PEP1, treatment from sowing for 7 days. An excerpt:
Different letters indicate significant differences (P<0.01, ANOVA, LSD test);

In the case of “Ser-Asp-Phe-Asp-Arg (SDFDR; Amino acid sequence of PEP1) [rice root-secreted peptide of five amino acids, artificially synthesized for exogenous application]”, the “restoration of root tip defected phenotype to the Xiushui 134 level” value in experiment [1] is recorded as “could not restore”; in experiment [2], “could restore”. For the same substance, the “length of the meristem of rice root tips” value in the experiment on rice root tips (106 M PEP1 for 2 days) is reported as “significantly shortened”. Also, in the experiment with rice root tips (PEP1 for 2 days), the “length of cells in the elongation zone of rice root tips” value was “significantly shortened”. Moreover, the “changes in the quiescent center” value in the experiment on rice root tips (root section after PEP1 treatment) is recorded as “no significant changes”. Further, the “rice primary root elongation” value in the experiment with rice seedlings is “significantly inhibited rice primary root elongation”.
